Test results from patent US8637525B2, “Compounds for the reduction of beta-amyloid production” (Bristol-Myers Squibb Company, priority 2009, dated 2014).
Structures can show the parent of a compound that is named as a salt.

tested on: Aβ1-42 production; experiment: Cellular assay for inhibition of Aβ1-42 production (H4 APP751 SWE clone 8.20); format: cell-based; conditions: 19 h, H4 APP751 SWE clone 8.20 cells, 19 h incubation; class symbols; read-out: Activity Rating (Aβ42 cellular IC50)
Summary of the method: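 Viewlux signal read-out; IC50 by curve fit. Sandwich: 565 anti-Aβ42 neoepitope (Wallac conjugate, 0.8 ng/well) + 26D6 anti-N-terminus (APC, 75 ng/well), in Tris-HCl 40 mM pH 7.4/0.2% BSA, o/n 4 °C. Cells exposed to compound 19 h, 37 °C, 5% CO2.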

IC50 [nM] | Compound
10 to 100 | CNc1nc(Nc2ccc(-n3cnc(Cl)n3)c(OC)c2)nc2c1CCC2c1cc(F)c(F)c(F)c1 (stereo not drawn) [Example 106, N^2-(4-(3-chloro-1H-1,2,4-triazol-1-yl)-3-methoxyphenyl)-N^4-methyl-7-(3,4,5-trifluorophenyl)-6,7-dihydro-5H-cyclopenta[d]pyrimidine-2,4-diamine]
100 to 1000 | CCNc1nc(Nc2ccc(-n3ncnc3C)c(F)c2)nc2c1COCC2c1ccc(C(F)(F)F)cc1 (stereo not drawn) [Example 119B, N4-ethyl-N2-(3-fluoro-4-(5-methyl-1H-1,2,4-triazol-1-yl)phenyl)-8-(4-(trifluoromethyl)phenyl)-7,8-dihydro-5H-pyrano[4,3-d]pyrimidine-2,4-diamine]
1.5 to 9.9 | CCNc1nc(Nc2ccc(-n3cnc(Cl)c3)c(OC)c2)nc2c1COCC2c1ccc(C#N)cc1 (stereo not drawn) [Example 121A, 4-(2-(4-(4-chloro-1H-imidazol-1-yl)-3-methoxyphenylamino)-4-(ethylamino)-7,8-dihydro-5H-pyrano[4,3-d]pyrimidin-8-yl)benzonitrile]

same assay, conditions: 19 h, H4 APP751 SWE clone 8.20 cells, 19 h incubation; read-out: Activity Rating (Aβ42 cellular IC50), numeric value

Compound | IC50 [nM]
CNc1nc(Nc2cnc(-n3cnc(Cl)c3)c(OC)c2)nc2c1CCC2c1cc(F)c(F)c(F)c1 (stereo not drawn) [Example 105, N^2-(6-(4-Chloro-1H-imidazol-1-yl)-5-methoxypyridin-3-yl)-N^4-methyl-7-(3,4,5-trifluorophenyl)-6,7-dihydro-5H-cyclopenta[d]pyrimidine-2,4-diamine] | 8.8
COc1cc(Nc2nc3c(c(N4CC(F)(F)C4)n2)CCC3c2cc(F)c(F)c(F)c2)ccc1-n1cnc(Cl)c1 (stereo not drawn) [Example 108, N-(4-(4-Chloro-1H-imidazol-1-yl)-3-methoxyphenyl)-4-(3,3-difluoroazetidin-1-yl)-7-(3,4,5-trifluorophenyl)-6,7-dihydro-5H-cyclopenta[d]pyrimidin-2-amine] | 20
C=CCC1(c2ccccc2)CCc2c(NCC)nc(Nc3ccc(-n4cnc(Cl)c4)c(OC)c3)nc21 (stereo not drawn) [Example 111, N2-(4-(4-chloro-1H-imidazol-1-yl)-3-methoxyphenyl)-N4-ethyl-7-allyl-7-phenyl-6,7-dihydro-5H-cyclopenta[d]pyrimidine-2,4-diamine] | 35
COc1cc(Nc2nc(N[C@H](C)C3CC3)c3c(n2)C(c2ccc(C(F)(F)F)cc2)COC3)ccc1-n1cnc(Cl)c1 (stereo partly drawn) [Example 117, N2-(4-(4-chloro-1H-imidazol-1-yl)-3-methoxyphenyl)-N4-((R)-1-cyclopropylethyl)-8-(4-(trifluoromethyl)phenyl)-7,8-dihydro-5H-pyrano[4,3-d]pyrimidine-2,4-diamine, TFA] | 45

Results, then the molecule that gave them:

IC50 [nM] | Compound
7.4 | CCNc1nc(Nc2ccc(-n3ncnc3C)c(F)c2)nc2c1COCC2c1ccc(C(F)(F)F)cc1 (stereo not drawn) [Example 119A, N4-ethyl-N2-(3-fluoro-4-(5-methyl-1H-1,2,4-triazol-1-yl)phenyl)-8-(4-(trifluoromethyl)phenyl)-7,8-dihydro-5H-pyrano[4,3-d]pyrimidine-2,4-diamine]
120 | CCNc1nc(Nc2ccc(-n3cnc(Cl)c3)c(OC)c2)nc2c1COCC2c1ccc(C#N)cc1 (stereo not drawn) [Example 121B, 4-(2-(4-(4-chloro-1H-imidazol-1-yl)-3-methoxyphenylamino)-4-(ethylamino)-7,8-dihydro-5H-pyrano[4,3-d]pyrimidin-8-yl)benzonitrile]

same assay, conditions: H4 APP751 SWE clone 8.20 cells, 19 h incubation; class symbols; read-out: Activity Rating (Aβ42 cellular IC50)

Compound | IC50 [nM]
CCNc1nc(Nc2ccc(-n3cnc(Cl)c3)c(OC)c2)nc2c1CCC2(C)c1ccccc1 (stereo not drawn) [Example 110A, N2-(4-(4-chloro-1H-imidazol-1-yl)-3-methoxyphenyl)-N4-ethyl-7-methyl-7-phenyl-6,7-dihydro-5H-cyclopenta[d]pyrimidine-2,4-diamine] | 1.5 to 9.9
CCNc1nc(Nc2ccc(-n3cnc(Cl)c3)c(OC)c2)nc2c1CCC2(C)c1ccccc1 (stereo not drawn) [Example 110B, N2-(4-(4-chloro-1H-imidazol-1-yl)-3-methoxyphenyl)-N4-ethyl-7-methyl-7-phenyl-6,7-dihydro-5H-cyclopenta[d]pyrimidine-2,4-diamine] | 10 to 100
CCNc1nc(Nc2ccc(-n3cnc(Cl)c3)c(OC)c2)nc2c1COCC2c1cc(F)cc(F)c1 (stereo not drawn) [Example 112A, N2-(4-(4-chloro-1H-imidazol-1-yl)-3-methoxyphenyl)-8-(3,5-difluorophenyl)-N4-ethyl-7,8-dihydro-5H-pyrano[4,3-d]pyrimidine-2,4-diamine] | 1.5 to 9.9
CCNc1nc(Nc2ccc(-n3cnc(Cl)c3)c(OC)c2)nc2c1COCC2c1cc(F)cc(F)c1 (stereo not drawn) [Example 112B, N2-(4-(4-chloro-1H-imidazol-1-yl)-3-methoxyphenyl)-8-(3,5-difluorophenyl)-N4-ethyl-7,8-dihydro-5H-pyrano[4,3-d]pyrimidine-2,4-diamine] | 10 to 100
CCNc1nc(Nc2ccc(-n3cnc(Cl)c3)c(OC)c2)nc2c1COCC2c1ccc(F)c(F)c1 (stereo not drawn) [Example 113A, N2-(4-(4-chloro-1H-imidazol-1-yl)-3-methoxyphenyl)-8-(3,4-difluorophenyl)-N4-ethyl-7,8-dihydro-5H-pyrano[4,3-d]pyrimidine-2,4-diamine] | 1.5 to 9.9
CCNc1nc(Nc2ccc(-n3cnc(Cl)c3)c(OC)c2)nc2c1COCC2c1ccc(F)c(F)c1 (stereo not drawn) [Example 113B, N2-(4-(4-chloro-1H-imidazol-1-yl)-3-methoxyphenyl)-8-(3,4-difluorophenyl)-N4-ethyl-7,8-dihydro-5H-pyrano[4,3-d]pyrimidine-2,4-diamine] | 10 to 100
COc1cc(Nc2nc3c(c(N4CC(F)(F)C4)n2)COCC3c2ccc(F)c(F)c2)ccc1-n1cnc(Cl)c1 (stereo not drawn) [Example 114A, N-(4-(4-chloro-1H-imidazol-1-yl)-3-methoxyphenyl)-4-(3,3-difluoroazetidin-1-yl)-8-(3,4-difluorophenyl)-7,8-dihydro-5H-pyrano[4,3-d]pyrimidin-2-amine] | 10 to 100
COc1cc(Nc2nc3c(c(N4CC(F)(F)C4)n2)COCC3c2ccc(F)c(F)c2)ccc1-n1cnc(Cl)c1 (stereo not drawn) [Example 114B, N-(4-(4-chloro-1H-imidazol-1-yl)-3-methoxyphenyl)-4-(3,3-difluoroazetidin-1-yl)-8-(3,4-difluorophenyl)-7,8-dihydro-5H-pyrano[4,3-d]pyrimidin-2-amine] | 100 to 1000
CNc1nc(Nc2ccc(-n3cnc(Cl)c3)c(OC)c2)nc2c1COCC2c1ccc(F)c(F)c1 (stereo not drawn) [Example 115A, N2-(4-(4-chloro-1H-imidazol-1-yl)-3-methoxyphenyl)-8-(3,4-difluorophenyl)-N4-methyl-7,8-dihydro-5H-pyrano[4,3-d]pyrimidine-2,4-diamine] | 1.5 to 9.9
CNc1nc(Nc2ccc(-n3cnc(Cl)c3)c(OC)c2)nc2c1COCC2c1ccc(F)c(F)c1 (stereo not drawn) [Example 115B, N2-(4-(4-chloro-1H-imidazol-1-yl)-3-methoxyphenyl)-8-(3,4-difluorophenyl)-N4-methyl-7,8-dihydro-5H-pyrano[4,3-d]pyrimidine-2,4-diamine] | 10 to 100

More lines, now with the values ahead:

IC50 [nM] | Compound
1.5 to 9.9 | CCNc1nc(Nc2ccc(-n3ncnc3C)c(F)c2)nc2c1COCC2c1ccc(F)c(F)c1 (stereo not drawn) [Example 116A, 8-(3,4-difluorophenyl)-N4-ethyl-N2-(3-fluoro-4-(5-methyl-1H-1,2,4-triazol-1-yl)phenyl)-7,8-dihydro-5H-pyrano[4,3-d]pyrimidine-2,4-diamine]
100 to 1000 | CCNc1nc(Nc2ccc(-n3ncnc3C)c(F)c2)nc2c1COCC2c1ccc(F)c(F)c1 (stereo not drawn) [Example 116B, 8-(3,4-difluorophenyl)-N4-ethyl-N2-(3-fluoro-4-(5-methyl-1H-1,2,4-triazol-1-yl)phenyl)-7,8-dihydro-5H-pyrano[4,3-d]pyrimidine-2,4-diamine]
10 to 100 | COc1cc(Nc2nc(N[C@H](C)C3CC3)c3c(n2)C(c2ccc(C(F)(F)F)cc2)COC3)ccc1-n1cnc(Cl)c1 (stereo partly drawn) [Example 117A, N2-(4-(4-chloro-1H-imidazol-1-yl)-3-methoxyphenyl)-N4-((R)-1-cyclopropylethyl)-8-(4-(trifluoromethyl)phenyl)-7,8-dihydro-5H-pyrano[4,3-d]pyrimidine-2,4-diamine]
100 to 1000 | COc1cc(Nc2nc(N[C@H](C)C3CC3)c3c(n2)C(c2ccc(C(F)(F)F)cc2)COC3)ccc1-n1cnc(Cl)c1 (stereo partly drawn) [Example 117B, N2-(4-(4-chloro-1H-imidazol-1-yl)-3-methoxyphenyl)-N4-((R)-1-cyclopropylethyl)-8-(4-(trifluoromethyl)phenyl)-7,8-dihydro-5H-pyrano[4,3-d]pyrimidine-2,4-diamine]
1.5 to 9.9 | CCNc1nc(Nc2ccc(-n3cnc(Cl)c3)c(OC)c2)nc2c1COCC2c1ccc(C(F)(F)F)cc1 (stereo not drawn) [Example 118A, N2-(4-(4-chloro-1H-imidazol-1-yl)-3-methoxyphenyl)-N4-ethyl-8-(4-(trifluoromethyl)phenyl)-7,8-dihydro-5H-pyrano[4,3-d]pyrimidine-2,4-diamine]
100 to 1000 | CCNc1nc(Nc2ccc(-n3cnc(Cl)c3)c(OC)c2)nc2c1COCC2c1ccc(C(F)(F)F)cc1 (stereo not drawn) [Example 118B, N2-(4-(4-chloro-1H-imidazol-1-yl)-3-methoxyphenyl)-N4-ethyl-8-(4-(trifluoromethyl)phenyl)-7,8-dihydro-5H-pyrano[4,3-d]pyrimidine-2,4-diamine]
1.5 to 9.9 | CNc1nc(Nc2ccc(-n3cnc(Cl)c3)c(OC)c2)nc2c1COCC2c1ccc(C(F)(F)F)cc1 (stereo not drawn) [Example 120A, N2-(4-(4-chloro-1H-imidazol-1-yl)-3-methoxyphenyl)-N4-methyl-8-(4-(trifluoromethyl)phenyl)-7,8-dihydro-5H-pyrano[4,3-d]pyrimidine-2,4-diamine]
100 to 1000 | CNc1nc(Nc2ccc(-n3cnc(Cl)c3)c(OC)c2)nc2c1COCC2c1ccc(C(F)(F)F)cc1 (stereo not drawn) [Example 120B, N2-(4-(4-chloro-1H-imidazol-1-yl)-3-methoxyphenyl)-N4-methyl-8-(4-(trifluoromethyl)phenyl)-7,8-dihydro-5H-pyrano[4,3-d]pyrimidine-2,4-diamine]
